Measured values: publication PMC12223310, “Mining the heparinome for cryptic antimicrobial peptides that selectively kill Gram-negative bacteria” (Molecular Systems Biology, 2025)
Values after ≈ are worked out from the molar mass of the structure shown. Read-outs that look alike come from different tables or passages of the source. Ends that are not written are not given here.

How the values were obtained:
[1] = test system: Pseudomonas sp (Pseudomonas aeruginosa); type: cell-based, Pseudomonas aeruginosa ATCC 15915
Procedure: (§1) Antimicrobial activities were determined by the microtiter broth dilution method recommended by the National Committee of Laboratory Safety and Standards (NCLSS), adapted for AMPs (Wiegand et al, [2008]). Briefly, overnight bacterial cell cultures were brought to an exponential growth state (OD600 = 0.4) in MH broth and diluted to a final concentration of 5 × 10^5 CFU/mL. In all, 1:2 peptide serial dilutions were prepared in 96-well polypropylene plates (Greiner, Frickenhausen, Germany), in MH medium containing 0.2% (w/v) of bovine serum albumin (BSA) and 0.02% glacial acetic acid. […] The lowest concentration with no colonies was taken as MBC. The results are the average of three independent studies.

Acinetobacter baumannii = type: cell-based, Acinetobacter baumannii ATCC 15308
Procedure: as §1

Staphylococcus aureus = type: cell-based, Staphylococcus aureus ATCC 12600
Procedure: as §1

Escherichia coli = type: cell-based, Escherichia coli BW25113
Procedure: as §1

Listeria monocytogenes = type: cell-based, Listeria monocytogenes ATCC 19112
Procedure: as §1

Enterococcus faecium = type: cell-based, Enterococcus faecium ATCC 19434
Procedure: as §1

in vitro = type: cell-based; settings: human, MRC-5 cells; MTT, 4 h peptide incubation in MEMα; average of three studies; read-out: LC50 (MRC-5 cells)
Procedure: (§2) Toxicity in MRC-5 and HepG2 cells was tested by the MTT assay, as described (Bello-Madruga et al, [2023]). Cell lines were maintained in Eagle’s minimum essential medium (MEMα) supplemented with 10% fetal bovine serum (FBS). Cells were cultured in 75-cm^2 flasks and then transferred to polystyrene 96-well plates, at 3 × 10^4 cells per well, and incubated overnight for attachment to the well surface. Then culture media was removed and 1:2 peptide serial dilutions in MEMα were added to each well and later incubated for 4 h. After incubation, peptides were removed and 100 μL of 0.5 mg/mL MTT staining solution in MEMα supplemented with 10% FBS was added to cells and incubated for 1.5 h at 37 °C. Formazan crystals in living cells were detected after disruption with 200 μL dimethyl sulfoxide and then absorbance was measured at 570 nm in a Tecan Spark instrument (Tecan, Männedorf, Switzerland). The results are the average of three independent studies.

Cytotoxicity, MTT assay = type: cell-based; settings: human, HepG2 cells, 4 h peptide incubation in MEMα, average of three studies, read-out: LC50 (HepG2 cells)
Procedure: as §2

Compound | MIC Pseudomonas sp [1] | MIC A. baumannii (Acinetobacter baumannii) | MIC S. aureus (Staphylococcus aureus) | MIC E. coli (Escherichia coli) | MIC L. monocytogenes (Listeria monocytogenes) | MBC Pseudomonas sp [1] | MBC A. baumannii (Acinetobacter baumannii) | MBC S. aureus (Staphylococcus aureus) | MBC E. faecium (Enterococcus faecium) | MIC E. faecium (Enterococcus faecium) | CC50 at 4 h (in vitro) | MBC E. coli (Escherichia coli; MIC wells plated on LB agar, overnight 37 °C, no colonies, average of three studies) | MIC E. coli (Escherichia coli; microtiter broth dilution, MH broth, 5 × 10^5 CFU/mL, overnight 37 °C, average of three studies) | CC50 at 4 h (Cytotoxicity, MTT assay) | MBC L. monocytogenes (Listeria monocytogenes)
HNLFRKLTHRLFRQNFGYTLRSV-NH2 [Peptide R14] | 0.4 µM | 0.4 µM | 6.3 µM | 0.4 µM | 3.1 µM | – | – | – | – | – | – | – | – | – | –
HNLFRKLTAALFRANFGYTLRSV-NH2 [ΔCPC’] | 1.6 µM | 1.6 µM | 6.3 µM | 1.6 µM | 3.1 µM | – | – | – | – | – | – | – | – | – | –
HNLFRKLTHQLFRRNFGYTLRSV-NH2 [Peptide R10] | 0.8 µM | 0.4 µM | 6.3 µM | 0.4 µM | 1.6 µM | – | – | – | – | – | – | – | – | – | –
CC[C@H](C)[C@H](NC(=O)[C@H](CCCCN)NC(=O)[C@H](CCC(=O)O)NC(=O)[C@H](CCCCN)NC(=O)[C@H](CO)NC(=O)[C@H](CCCCN)NC(=O)[C@H](CCCNC(=N)N)NC(=O)[C@H](Cc1ccccc1)NC(=O)[C@H](Cc1ccccc1)NC(=O)[C@H](CC(=O)O)NC(=O)CNC(=O)[C@H](CC(C)C)NC(=O)[C@@H](N)CC(C)C)C(=O)NCC(=O)N[C@@H](CCCCN)C(=O)N[C@@H](CCC(=O)O)C(=O)N[C@@H](Cc1ccccc1)C(=O)N[C@@H](CCCCN)C(=O)N[C@@H](CCCNC(=N)N)C(=O)N[C@H](C(=O)N[C@H](C(=O)N[C@@H](CCC(N)=O)C(=O)N[C@@H](CCCNC(=N)N)C(=O)N[C@H](C(=O)N[C@@H](CCCCN)C(=O)N[C@@H](CC(=O)O)C(=O)N[C@@H](Cc1ccccc1)C(=O)N[C@@H](CC(C)C)C(=O)N[C@@H](CCCNC(=N)N)C(=O)N[C@@H](CC(N)=O)C(=O)N[C@@H](CC(C)C)C(=O)N[C@H](C(=O)N1CCC[C@H]1C(=O)N[C@@H](CCCNC(=N)N)C(=O)N[C@H](C(=O)N[C@@H](CCC(=O)O)C(=O)N[C@@H](CO)C(N)=O)[C@@H](C)O)C(C)C)[C@@H](C)CC)C(C)C)[C@@H](C)CC [LL-37, reference compound] | 0.8 µM (≈ 3.59 µg/mL) | 6.3 µM (≈ 28.3 µg/mL) | 25 µM (≈ 112 µg/mL) | – | 0.8 µM (≈ 3.59 µg/mL) | 0.8 µM (≈ 3.59 µg/mL) | 6.3 µM (≈ 28.3 µg/mL) | 25 µM (≈ 112 µg/mL) | 3.1 µM (≈ 13.9 µg/mL) | 0.8 µM (≈ 3.59 µg/mL) | 26 µM | 3.1 µM (≈ 13.9 µg/mL) | 1.6 µM (≈ 7.19 µg/mL) | 53 µM | 3.1 µM (≈ 13.9 µg/mL)
